Type in all cases: cell-based
For series [1], the target named is T1, human Nav1.5 (Homo sapiens (Human), UniProt Q14524). In words: Qpatch automated patch-clamp, peak Nav1.5 current inhibition, 1 Hz sinus rate, ventricular condition (holding potential -100 mV). The note with it: CHO-K1 cells stably expressing human Nav1.5, without ATX-II. The text has this: (§1) Electrophysiology was used to measure the ionic currents in isolated living cells using automated patch-clamp recording, performed using an automated patch-clamp machine called Qpatch (Sophion Bioscience). Two different assay conditions were used to identify compounds with atrial-selective potential. The 5-Hz AF-like assay has more depolarized holding potential at −85 mV to mimic atrial resting membrane potential (RMP) and was used to identify compounds of strong rate-dependence. Active, rate-dependent compounds were then screened at 1 Hz (i.e., sinus rate) at the holding potential of −100 mV to mimic the ventricular scenario and help identify compounds with the largest potency separation or attenuation from the 5-Hz AF-like assay. Such compounds have the potential for treating AF without the QRS liability inherent to Class Ic drugs.
(§2) The sodium current conducted through a cell (via Nav1.5) or electrical signals were processed through a low-pass filter at 5 KHz, re-digitalized and acquired at 20 kHz. Series resistance was not compensated and leak subtraction was performed.
(§3) 1 to 3 million Chinese Hamster Ovary cells (also known as CHO-K1) stably expressing human Nav1.5 were seeded into […] culture flasks with 25 mL medium (consisting of Gibco Dulbecco's Modified Eagle Medium as a base medium with 1% MEM non-essential amino acids, 400 μg/mL Geneticin, 5 μg/mL puromycin and 10% fetal bovine serum) 48-72 hours prior to the experiments. On the day of the experiment, cells were washed once with phosphate-buffered saline (also known as PBS; Gibco) detached with Detachin™ (Genlantis), and re-suspended in CHO—S-SFM II media (Gibco) at 200,000 cells/mL. The CHO—S-SFM II was replaced with assay solutions prior to the assays. Whole-cell currents were recorded at room temperature in the whole-cell configuration. The external aqueous assay solution (pH=7.4; Osm=307-315) contained the following (the concentration for each component is expressed in parentheses in mM): NaCl (140 mM), KCl (4 mM), CaCl2) (2 mM), MgCl2 (1 mM), 4-(2-hydroxyethyl)-1-piperazineethanesulfonic acid, also known as HEPES (10 mM), and glucose (5 mM). The internal aqueous assay solution (pH=7.2; Osm=292-295) contained the following (the concentration for each component is expressed in parentheses in mM): CsF (110 mM), CsCl (10 mM), NaCl (10 mM), HEPES (10 mM), and ethylene glycolbis(β-aminoethyl ether)-N,N,N′,N′-tetraacetic acid, also known as EGTA (10 mM).
(§4) To assess peak Nav1.5 current inhibition mimicking a ventricular condition at sinus rate with or without ATX-II (Nav1.5 IC50 (1 Hz, ATXII) (μM) or (1 Hz, Sinus Rate) (μM)), compounds were first prepared at 10 mM in DMSO, and cells were pre-incubated with test compounds at each concentration for 3 min. in an ascending order of 0, 0.37, 1.1, 3.3, 10 and 30 uM. In the assay with ATX-II (Alomone Labs), 50 nM ATX-II was included during the 3-min. compound incubation. A square pulse (−10 mV; 400 ms and a holding potential at −100 mV) was run at 1 Hz for 25 s until no further inhibition or Nav1.5 current change was observed. The percent inhibition (expressed as ([Iafter compound treatment/Ibefore compound treatment]×100%) is calculated by normalizing the peak current amplitude at the last pulse of each of the 6 compound concentrations by the amplitude before exposure to the test compound. The compiled data was further normalized by vehicle control (DMSO) to account for Nav1.5 current run-down, and IC50 was calculated by Matlab (MathWorks, USA).

For series [2], the target named is T1, human Nav1.5. Description: Qpatch automated patch-clamp, peak Nav1.5 current inhibition, 1 Hz with 50 nM ATX-II (holding potential -100 mV). Conditions: CHO-K1 cells stably expressing human Nav1.5, read-out: Nav1.5 IC50 (1 Hz, ATXII).
Excerpt: as §1, §2, §3, §4

Series [3] deals with T1, human Nav1.5. In words: Qpatch automated patch-clamp, peak Nav1.5 current inhibition, 5-Hz AF-like assay (holding potential -85 mV). The note with it: CHO-K1 cells stably expressing human Nav1.5, holding potential -85 mV, Table 5, read-out: Nav1.5 IC50 (5 Hz, AF Rate). A digest of the protocol: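 CHO-K1 cells stably expressing human Nav1.5, whole-cell automated patch-clamp at room temperature, CsF-based internal. Compounds pre-incubated 3 min each at ascending 0-30 μM; +10 to −85 mV ramp (150 ms) applied at 5 Hz for 12 s from −85 mV holding. IC50 from last-pulse peak current, vehicle-normalized for run-down.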

T1 sequence (Q14524 whole entry): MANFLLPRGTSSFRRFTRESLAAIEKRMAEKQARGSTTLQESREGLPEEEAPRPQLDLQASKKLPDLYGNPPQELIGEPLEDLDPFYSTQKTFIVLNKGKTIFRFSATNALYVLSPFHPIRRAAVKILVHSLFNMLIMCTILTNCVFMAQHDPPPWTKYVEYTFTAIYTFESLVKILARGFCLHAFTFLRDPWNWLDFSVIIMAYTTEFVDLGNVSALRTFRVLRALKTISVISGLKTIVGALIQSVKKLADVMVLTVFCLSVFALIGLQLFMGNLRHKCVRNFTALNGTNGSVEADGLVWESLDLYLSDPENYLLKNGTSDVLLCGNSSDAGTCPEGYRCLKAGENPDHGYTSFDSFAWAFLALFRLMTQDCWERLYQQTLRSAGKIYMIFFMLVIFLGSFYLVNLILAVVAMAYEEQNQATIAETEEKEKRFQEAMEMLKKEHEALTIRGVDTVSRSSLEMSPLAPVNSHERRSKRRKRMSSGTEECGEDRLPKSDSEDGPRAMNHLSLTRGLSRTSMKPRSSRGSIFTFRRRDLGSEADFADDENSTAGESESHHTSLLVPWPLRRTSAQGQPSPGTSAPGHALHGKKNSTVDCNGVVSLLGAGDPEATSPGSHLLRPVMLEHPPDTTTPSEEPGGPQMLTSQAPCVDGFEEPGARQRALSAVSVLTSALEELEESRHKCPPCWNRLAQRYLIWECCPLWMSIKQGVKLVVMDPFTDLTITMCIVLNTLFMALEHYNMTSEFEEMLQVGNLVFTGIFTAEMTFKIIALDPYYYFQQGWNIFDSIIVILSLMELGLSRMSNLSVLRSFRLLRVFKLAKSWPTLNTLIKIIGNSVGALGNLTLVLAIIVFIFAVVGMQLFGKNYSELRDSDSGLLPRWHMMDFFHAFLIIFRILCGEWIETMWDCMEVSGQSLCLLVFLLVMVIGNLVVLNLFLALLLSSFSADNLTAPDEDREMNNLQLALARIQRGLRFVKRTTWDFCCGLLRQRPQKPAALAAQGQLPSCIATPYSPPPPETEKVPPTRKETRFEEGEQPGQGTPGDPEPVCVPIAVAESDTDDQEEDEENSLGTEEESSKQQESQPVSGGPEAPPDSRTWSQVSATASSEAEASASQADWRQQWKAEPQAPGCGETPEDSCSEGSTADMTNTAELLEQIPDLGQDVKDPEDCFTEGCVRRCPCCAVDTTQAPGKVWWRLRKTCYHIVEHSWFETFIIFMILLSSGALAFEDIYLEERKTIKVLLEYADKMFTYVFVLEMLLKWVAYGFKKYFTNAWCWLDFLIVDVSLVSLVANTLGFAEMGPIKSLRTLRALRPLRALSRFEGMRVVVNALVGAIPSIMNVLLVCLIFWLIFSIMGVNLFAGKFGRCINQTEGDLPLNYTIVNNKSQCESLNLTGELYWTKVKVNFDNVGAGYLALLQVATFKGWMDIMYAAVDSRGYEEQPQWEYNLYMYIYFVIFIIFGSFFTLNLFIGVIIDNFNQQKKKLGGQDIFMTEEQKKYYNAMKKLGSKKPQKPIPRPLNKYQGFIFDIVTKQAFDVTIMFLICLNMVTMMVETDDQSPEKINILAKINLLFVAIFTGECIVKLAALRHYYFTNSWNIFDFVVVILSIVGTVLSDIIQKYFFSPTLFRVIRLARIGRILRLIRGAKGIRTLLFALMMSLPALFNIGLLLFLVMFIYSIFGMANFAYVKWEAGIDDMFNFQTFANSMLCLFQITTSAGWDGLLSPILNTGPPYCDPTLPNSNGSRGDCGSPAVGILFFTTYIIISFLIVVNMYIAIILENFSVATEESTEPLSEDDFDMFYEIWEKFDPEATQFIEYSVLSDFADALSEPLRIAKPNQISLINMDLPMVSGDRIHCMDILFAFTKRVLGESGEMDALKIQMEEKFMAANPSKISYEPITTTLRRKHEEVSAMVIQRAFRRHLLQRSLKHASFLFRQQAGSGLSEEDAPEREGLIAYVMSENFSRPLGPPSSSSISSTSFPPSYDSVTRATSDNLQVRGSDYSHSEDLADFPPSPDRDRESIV

For the compound `CC(C(C)(O)c1cccc(-c2nnn(Cc3cc(OC(F)(F)F)ccc3F)n2)n1)S(N)(=O)=O` (single isomer, unassigned) [Example 14, (2R or 2S,3R or 3S)-3-(6-(2-(2-fluoro-5-(trifluoromethoxy)benzyl)-2H-tetrazol-5-yl)pyridin-2-yl)-3-hydroxybutane-2-sulfonamide], the IC50 against human Nav1.5 [1] is > 30 µM; at human Nav1.5 [2] it was 15 µM; at human Nav1.5 [3], 4 µM.

`CC(O)(CS(N)(=O)=O)c1cccc(-c2nnn(Cc3cc(OC(F)(F)F)ccc3F)n2)c1F` (single isomer, unassigned) [Example 12, (R or S)-2-(2-fluoro-3-(2-(2-fluoro-5-(trifluoromethoxy)benzyl)-2H-tetrazol-5-yl)phenyl)-2-hydroxypropane-1-sulfonamide]: the figures for the IC50 against human Nav1.5 [1], at human Nav1.5 [2] and at human Nav1.5 [3] were 10 µM, 5.2 µM and 4.2 µM, respectively.

For `CC(O)(CS(N)(=O)=O)c1cccc(-c2nnn(Cc3cc(OC4CC4)ccc3F)n2)n1` (single isomer, unassigned) [Example 46, (R or S)-2-(6-(2-(5-cyclopropoxy-2-fluorobenzyl)-2H-tetrazol-5-yl)pyridin-2-yl)-2-hydroxypropane-1-sulfonamide], the results for the IC50 against human Nav1.5 [1], on human Nav1.5 [2] and on human Nav1.5 [3] were > 30 µM, > 30 µM and 8.3 µM, respectively.

Regarding `CC(O)(CS(N)(=O)=O)c1cccc(-c2nnn(Cc3cc(OC(F)(F)F)ccc3F)n2)c1F` (single isomer, unassigned) [Example 11, (R or S)-2-(2-fluoro-3-(2-(2-fluoro-5-(trifluoromethoxy)benzyl)-2H-tetrazol-5-yl)phenyl)-2-hydroxypropane-1-sulfonamide], the values for the half-inhibitory concentration (IC50) at human Nav1.5 [1], on human Nav1.5 [2] and at human Nav1.5 [3] were 8.9 µM, 5.6 µM and 1.7 µM, respectively.

As to `CC(O)(CS(N)(=O)=O)c1cccc(-c2nnn(Cc3cc(OC4CC4)ccc3F)n2)n1` (single isomer, unassigned) [Example 47, (R or S)-2-(6-(2-(5-cyclopropoxy-2-fluorobenzyl)-2H-tetrazol-5-yl)pyridin-2-yl)-2-hydroxypropane-1-sulfonamide], the half-maximal inhibitory concentration (IC50) against human Nav1.5 [1] was determined as 27 µM; at human Nav1.5 [2] it was 13 µM; on human Nav1.5 [3], 3.9 µM.

Take `CC(C(O)c1cccc(-c2nnn(Cc3cc(OC(F)(F)F)ccc3F)n2)n1)S(N)(=O)=O` (single isomer, unassigned) [Example 52, (JR or 1S,2R or 2S)-1-(6-(2-(2-fluoro-5-(trifluoromethoxy)benzyl)-2H-tetrazol-5-yl)pyridin-2-yl)-1-hydroxypropane-2-sulfonamide]: the IC50 against human Nav1.5 [1] was found to be 49 µM; at human Nav1.5 [2] it was 22 µM; at human Nav1.5 [3], 2.9 µM.

Regarding `CC(O)(CS(N)(=O)=O)c1cc(F)cc(-c2nnn(Cc3cc(OC(F)(F)F)ccc3F)n2)c1` (single isomer, unassigned) [Example 23, (R or S)-2-(3-fluoro-5-(2-(2-fluoro-5-(trifluoromethoxy)benzyl)-2H-tetrazol-5-yl)phenyl)-2-hydroxypropane-1-sulfonamide], the values for the IC50 against human Nav1.5 [1], at human Nav1.5 [2] and at human Nav1.5 [3] were > 30 µM, > 30 µM and 5.6 µM, respectively.

Regarding `CC(C(C)(O)c1cccc(-c2nnn(Cc3cc(OC(F)(F)F)ccc3F)n2)n1)S(N)(=O)=O` (single isomer, unassigned) [Example 13, (2R or 2S, 3R or 3S)-3-(6-(2-(2-fluoro-5-(trifluoromethoxy)benzyl)-2H-tetrazol-5-yl)pyridin-2-yl)-3-hydroxybutane-2-sulfonamide], the IC50 against human Nav1.5 [1] is 12 µM; on human Nav1.5 [2], > 30 µM; at human Nav1.5 [3], 4.3 µM.

Take `CC(c1cccc(-c2nnn(Cc3cc(OC(F)(F)F)ccc3F)n2)n1)C(CO)S(N)(=O)=O` (single isomer, unassigned) [Example 31, (2R or 2S, 3R or 3S)-3-(6-(2-(2-fluoro-5-(trifluoromethoxy)benzyl)-2H-tetrazol-5-yl)pyridin-2-yl)-1-hydroxybutane-2-sulfonamide]: the IC50 against human Nav1.5 [1] was determined as 7.8 µM; on human Nav1.5 [3], 1.1 µM.

As for `CC(O)(CS(N)(=O)=O)c1cccc(-c2nnn(Cc3cccc(C(F)(F)F)c3)n2)n1` (single isomer, unassigned) [Example 40, (R or S)-2-hydroxy-2-(6-(2-(3-(trifluoromethyl)benzyl)-2H-tetrazol-5-yl)pyridin-2-yl)propane-1-sulfonamide], the results for the IC50 on human Nav1.5 [1] and at human Nav1.5 [3] were > 30 µM and 21 µM, respectively.

Take `CC(O)(CS(N)(=O)=O)c1cccc(-c2ncn(Cc3cc(OC(F)(F)F)ccc3F)n2)n1` (single isomer, unassigned) [Example 55, (R or S)-2-(6-(1-(2-fluoro-5-(trifluoromethoxy)benzyl)-1H-1,2,4-triazol-3-yl)pyridin-2-yl)-2-hydroxypropane-1-sulfonamide]: the IC50 against human Nav1.5 [1] was > 30 µM; at human Nav1.5 [3] it was 19 µM.

With `CC(c1cccc(-c2nnn(Cc3cc(OC(F)(F)F)ccc3F)n2)n1)C(CO)S(N)(=O)=O` (single isomer, unassigned) [Example 34, (2R or 2S, 3R or 3S)-3-(6-(2-(2-fluoro-5-(trifluoromethoxy)benzyl)-2H-tetrazol-5-yl)pyridin-2-yl)-1-hydroxybutane-2-sulfonamide], the IC50 on human Nav1.5 [1] is > 30 µM; at human Nav1.5 [3], 2.2 µM.

Regarding `CC(O)(CS(N)(=O)=O)c1cccc(-c2ncn(Cc3cc(OC(F)(F)F)ccc3F)n2)n1` (single isomer, unassigned) [Example 56, (R or S)-2-(6-(1-(2-fluoro-5-(trifluoromethoxy)benzyl)-1H-1,2,4-triazol-3-yl)pyridin-2-yl)-2-hydroxypropane-1-sulfonamide], the IC50 was > 30 µM against human Nav1.5 [1] and 16 µM on human Nav1.5 [3].

On to `CC(O)(CS(N)(=O)=O)c1cc(-c2nnn(Cc3cc(OC(F)(F)F)ccc3F)n2)ccc1F` (single isomer, unassigned) [Example 5, (R or S)-2-(2-fluoro-5-(2-(2-fluoro-5-(trifluoromethoxy)benzyl)-2H-tetrazol-5-yl)phenyl)-2-hydroxypropane-1-sulfonamide], for which the IC50 against human Nav1.5 [1] is > 30 µM; on human Nav1.5 [3] it was 7.9 µM.

On to `CC(O)(CS(N)(=O)=O)c1cc(-c2nnn(Cc3cc(OC(F)(F)F)ccc3F)n2)ccc1F` (single isomer, unassigned) [Example 6, (R or S)-2-(2-fluoro-5-(2-(2-fluoro-5-(trifluoromethoxy)benzyl)-2H-tetrazol-5-yl)phenyl)-2-hydroxypropane-1-sulfonamide], for which the IC50 against human Nav1.5 [1] was > 30 µM; on human Nav1.5 [3], 7.9 µM.

For `CC(c1cccc(-c2nnn(Cc3cc(OC(F)(F)F)ccc3F)n2)n1)C(CO)S(N)(=O)=O` (single isomer, unassigned) [Example 33, (2R or 2S,3R or 3S)-3-(6-(2-(2-fluoro-5-(trifluoromethoxy)benzyl)-2H-tetrazol-5-yl)pyridin-2-yl)-1-hydroxybutane-2-sulfonamide], the IC50 at human Nav1.5 [1] is 6.7 µM; at human Nav1.5 [3], 1.3 µM.

(Values after patent US20250034108A1, “SODIUM CHANNEL BLOCKERS” (NOVARTIS AG, priority 2023, published 2025).)
